These results are taken from ChEMBL document CHEMBL3045280, “Designing Tetrahydroimidazo[1,2-a]pyridine derivatives via catalyst-free Aza-Diels-Alder reaction (ADAR) and their insecticidal evaluation” (2010).

As usually defined, the mortality is the share of the test organisms that died. Broadly, the LC50 is the concentration that kills 50% of the test population.

The subject of the first test is Aphis craccivora. Nature of the test: Insecticidal activity against Aphis craccivora (cowpea aphid) infested tender soybean shoots exposed to 500 mg/L compound solution assessed as insect mortality measured 24 hr post compound treatment (reference value: 4.1%). Format: functional.
On to `Cc1ccc(C2N3CCN(Cc4ccc(Cl)nc4)C3=C([N+](=O)[O-])C(c3ccco3)C2(C#N)C#N)c(F)c1` (configuration not stated), for which the mortality is 100%. Same read-out and setting: the figure for `N#CC1(C#N)C(c2ccco2)C([N+](=O)[O-])=C2N(Cc3ccc(Cl)nc3)CCN2C1c1cccc(F)c1F` (configuration not stated) is 48.8%.

For `N#CC1(C#N)C(c2ccco2)C([N+](=O)[O-])=C2N(Cc3ccc(Cl)nc3)CCN2C1c1ccc(OC(F)(F)F)c(Cl)c1` (configuration not stated), the mortality worked out at 0%. Consider `N#CC1(C#N)C(c2ccco2)C([N+](=O)[O-])=C2N(Cc3ccc(Cl)nc3)CCN2C1c1ccc(C(F)(F)F)c(F)c1` (configuration not stated), for which the mortality came to 96.8%. Still for that read-out and setting: the figure for `N#CC1(C#N)C(c2ccco2)C([N+](=O)[O-])=C2N(Cc3ccc(Cl)nc3)CCN2C1c1ccc(F)cc1` (configuration not stated) is 64.21%. On the same count and under the same terms, for `Cc1ccc(C2N3CCN(Cc4ccc(Cl)nc4)C3=C([N+](=O)[O-])C(c3ccco3)C2(C#N)C#N)cc1` (configuration not stated) the value was 0%; for `Cc1ccc(F)c(C2N3CCN(Cc4ccc(Cl)nc4)C3=C([N+](=O)[O-])C(c3ccco3)C2(C#N)C#N)c1` (configuration not stated), 73.9%.

On to `N#CC1(C#N)C(c2ccco2)C([N+](=O)[O-])=C2N(Cc3ccc(Cl)nc3)CCN2C1c1ccc(Cl)cc1Cl` (configuration not stated), for which the mortality is 85.9%.

For the molecule `N#CC1(C#N)C(c2ccco2)C([N+](=O)[O-])=C2N(Cc3ccc(Cl)nc3)CCN2C1c1cccc(Br)c1` (configuration not stated), the mortality was found to be 75.8%. Same read-out and setting: the figure for `N#CC1(C#N)C(c2ccco2)C([N+](=O)[O-])=C2N(Cc3ccc(Cl)nc3)CCN2C1c1ccc(Cl)cc1F` (configuration not stated) is 56.7%; for `N#CC1(C#N)C(c2ccco2)C([N+](=O)[O-])=C2N(Cc3ccc(Cl)nc3)CCN2C1c1ccc(Br)cc1Cl` (configuration not stated) it is 0%; for `N#CC1(C#N)C(c2ccco2)C([N+](=O)[O-])=C2N(Cc3ccc(Cl)nc3)CCN2C1c1cccc([N+](=O)[O-])c1` (configuration not stated) it is 0%.

Take `CN(C)c1ccc(C2N3CCN(Cc4ccc(Cl)nc4)C3=C([N+](=O)[O-])C(c3ccco3)C2(C#N)C#N)cc1` (configuration not stated): the mortality is 0%. On the same count and under the same terms, the figure for `N#Cc1cccc(C2N3CCN(Cc4ccc(Cl)nc4)C3=C([N+](=O)[O-])C(c3ccco3)C2(C#N)C#N)c1` (configuration not stated) is 0%. On the same count and under the same terms, for `Cc1ccc(F)cc1C1N2CCN(Cc3ccc(Cl)nc3)C2=C([N+](=O)[O-])C(c2ccco2)C1(C#N)C#N` (configuration not stated) the value was 0%. Turning to `N#CC1(C#N)C(c2ccco2)C([N+](=O)[O-])=C2N(Cc3ccc(Cl)nc3)CCN2C1c1cc(C(F)(F)F)ccc1F` (configuration not stated), the mortality is reported as 100%. Still for that read-out and setting: the figure for `N#CC1(C#N)C(c2ccco2)C([N+](=O)[O-])=C2N(Cc3ccc(Cl)nc3)CCN2C1c1ccc(Cl)cc1C(F)(F)F` (configuration not stated) is 100%. Same read-out and setting: the figure for `N#CC1(C#N)C(c2ccco2)C([N+](=O)[O-])=C2N(Cc3ccc(Cl)nc3)CCN2C1c1ccc([N+](=O)[O-])cc1` (configuration not stated) is 0%; for `N#CC1(C#N)C(c2ccco2)C([N+](=O)[O-])=C2N(Cc3ccc(Cl)nc3)CCN2C1c1ccc(OC(F)(F)F)cc1` (configuration not stated) it is 0%. As for `N#Cc1ccc(C2N3CCN(Cc4ccc(Cl)nc4)C3=C([N+](=O)[O-])C(c3ccco3)C2(C#N)C#N)cc1` (configuration not stated), the mortality came to 0%. For `COc1ccc(C2N3CCN(Cc4ccc(Cl)nc4)C3=C([N+](=O)[O-])C(c3ccco3)C2(C#N)C#N)cc1` (configuration not stated), the mortality amounted to 0%. Same read-out and setting: the figure for `N#CC1(C#N)C(c2ccco2)C([N+](=O)[O-])=C2N(Cc3ccc(Cl)nc3)CCN2C1c1ccccc1` (configuration not stated) is 0%.

The next test relates to Aphis craccivora. Put plainly: Insecticidal activity against Aphis craccivora (cowpea aphid) infested tender soybean shoots exposed to compound solution assessed as insect mortality measured 24 hr post compound treatment (reference value: 4.1%). Type of test: functional.
On to `Cc1ccc(C2N3CCN(Cc4ccc(Cl)nc4)C3=C([N+](=O)[O-])C(c3ccco3)C2(C#N)C#N)c(F)c1` (configuration not stated), for which the LC50 was 5.52 µM. On the same count and under the same terms, for `N#CC1(C#N)C(c2ccco2)C([N+](=O)[O-])=C2N(Cc3ccc(Cl)nc3)CCN2C1c1ccc(C(F)(F)F)c(F)c1` (configuration not stated) the value was 87.4 µM; for `N#CC1(C#N)C(c2ccco2)C([N+](=O)[O-])=C2N(Cc3ccc(Cl)nc3)CCN2C1c1cc(C(F)(F)F)ccc1F` (configuration not stated), 113 µM; for `N#CC1(C#N)C(c2ccco2)C([N+](=O)[O-])=C2N(Cc3ccc(Cl)nc3)CCN2C1c1ccc(Cl)cc1C(F)(F)F` (configuration not stated), 87.2 µM.

`O=[N+]([O-])/N=C1\NCCN1Cc1ccc(Cl)nc1` [IMIDACLOPRID]: the LC50 was 35 µM.
